Measured values: US7439251B2, “Methods and compositions for treatment of central and peripheral nervous system disorders and novel compounds useful therefor” (Israel Institute for Biological Research, priority 2002, dated 2008)
Entries after “also recorded” stand apart in the source; their conditions may differ. Read-outs that look alike come from different tables or passages of the source.

Tests used:
[1] = target: T1, human M5 receptor (Homo sapiens, UniProt P08912); assay: PI hydrolysis, human M5; format: cell-based
T1 construct: expressed in transfected cells
T1 sequence (P08912 whole entry): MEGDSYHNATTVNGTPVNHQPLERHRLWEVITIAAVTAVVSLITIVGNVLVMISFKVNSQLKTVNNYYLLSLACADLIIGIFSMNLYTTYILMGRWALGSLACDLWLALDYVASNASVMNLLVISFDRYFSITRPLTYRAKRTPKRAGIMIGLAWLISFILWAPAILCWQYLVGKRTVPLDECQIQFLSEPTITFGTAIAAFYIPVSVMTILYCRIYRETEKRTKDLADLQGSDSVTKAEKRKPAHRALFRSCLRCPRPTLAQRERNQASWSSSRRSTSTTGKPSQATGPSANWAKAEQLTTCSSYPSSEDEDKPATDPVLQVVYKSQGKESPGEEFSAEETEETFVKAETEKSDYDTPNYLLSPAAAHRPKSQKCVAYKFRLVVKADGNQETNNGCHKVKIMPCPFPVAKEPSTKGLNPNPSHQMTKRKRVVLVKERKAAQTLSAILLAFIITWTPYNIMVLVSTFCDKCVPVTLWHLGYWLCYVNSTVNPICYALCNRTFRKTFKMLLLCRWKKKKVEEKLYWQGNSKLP

[2] = target: M2 mAChR (Homo sapiens, UniProt P08172); assay: Intracellular Ca ions in modified cell cultures, M2; format: cell-based; conditions: 10^−9-10^−3M
Chain of M2 mAChR (P08172 whole entry): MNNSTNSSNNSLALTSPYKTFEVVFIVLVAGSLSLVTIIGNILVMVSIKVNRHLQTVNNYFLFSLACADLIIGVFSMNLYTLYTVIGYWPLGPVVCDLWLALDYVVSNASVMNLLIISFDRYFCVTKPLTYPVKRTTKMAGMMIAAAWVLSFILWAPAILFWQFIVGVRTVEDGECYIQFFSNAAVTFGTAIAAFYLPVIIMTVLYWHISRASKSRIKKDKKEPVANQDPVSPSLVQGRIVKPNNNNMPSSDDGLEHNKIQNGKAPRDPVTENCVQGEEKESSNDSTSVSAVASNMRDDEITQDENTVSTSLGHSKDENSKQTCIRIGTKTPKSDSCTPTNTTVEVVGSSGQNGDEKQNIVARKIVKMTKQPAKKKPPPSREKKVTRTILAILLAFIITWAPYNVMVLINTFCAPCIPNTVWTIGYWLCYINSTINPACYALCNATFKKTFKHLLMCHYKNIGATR

[3] = tested on: adenosine A1, A2A, A3; alpha 1, alpha 2, beta 1; AT1; BZD; B2; CCKA; D1, D2S; ETA; GABA; GAL2; IL-8B; CCR1; H1, H2; MC4; ML1; NK2, NK3; Y1, Y2; NT1; opiate …; assay: Selectivity binding panel for AF292; conditions: 10 μM
[4] = target: CYP2C9 (Homo sapiens, UniProt P11712); assay: P450 inhibition, microtiter plate; format: in vitro ADME; conditions: up to 10 μM
Chain of CYP2C9 (P11712 whole entry): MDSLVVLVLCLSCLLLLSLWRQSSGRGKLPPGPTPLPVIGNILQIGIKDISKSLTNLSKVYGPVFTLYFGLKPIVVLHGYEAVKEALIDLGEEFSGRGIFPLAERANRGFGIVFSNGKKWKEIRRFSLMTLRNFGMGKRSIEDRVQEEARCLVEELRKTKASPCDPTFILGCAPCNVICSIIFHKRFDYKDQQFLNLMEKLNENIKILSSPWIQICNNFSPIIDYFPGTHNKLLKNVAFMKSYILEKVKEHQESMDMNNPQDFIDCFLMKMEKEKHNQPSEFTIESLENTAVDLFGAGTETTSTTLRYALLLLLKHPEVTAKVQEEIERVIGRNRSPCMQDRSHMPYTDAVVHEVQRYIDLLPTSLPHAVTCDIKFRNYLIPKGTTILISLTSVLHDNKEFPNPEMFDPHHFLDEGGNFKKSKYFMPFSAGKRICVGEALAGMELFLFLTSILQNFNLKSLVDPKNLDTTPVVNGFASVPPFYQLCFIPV
Procedure: (§1) Cytochrome P450 activity can be an indicator for potential drug-drug interactions. AF292 was evaluated in a microtiter plate assay for P450 inhibition.

[5] = target: CYP3A4 (Homo sapiens, UniProt P08684); assay: P450 inhibition, microtiter plate; format: in vitro ADME; conditions: up to 10 μM
Chain of CYP3A4 (P08684 whole entry): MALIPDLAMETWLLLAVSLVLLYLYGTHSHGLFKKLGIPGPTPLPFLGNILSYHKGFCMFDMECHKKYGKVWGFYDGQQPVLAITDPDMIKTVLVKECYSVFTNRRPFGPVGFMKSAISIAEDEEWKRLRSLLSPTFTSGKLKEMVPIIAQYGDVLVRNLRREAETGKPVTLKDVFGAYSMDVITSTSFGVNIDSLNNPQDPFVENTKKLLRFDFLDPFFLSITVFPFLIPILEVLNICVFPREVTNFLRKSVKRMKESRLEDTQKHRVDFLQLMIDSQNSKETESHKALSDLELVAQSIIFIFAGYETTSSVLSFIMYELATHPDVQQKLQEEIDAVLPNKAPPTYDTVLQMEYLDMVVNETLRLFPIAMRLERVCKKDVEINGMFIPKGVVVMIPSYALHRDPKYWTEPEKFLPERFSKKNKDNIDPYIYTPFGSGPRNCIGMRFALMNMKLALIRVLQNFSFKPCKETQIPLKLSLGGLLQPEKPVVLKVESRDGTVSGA
Procedure: as §1

[6] = target: CYP1A2 (Homo sapiens, UniProt P05177); assay: P450 inhibition, microtiter plate; format: in vitro ADME; conditions: up to 10 μM
Chain of CYP1A2 (P05177 whole entry): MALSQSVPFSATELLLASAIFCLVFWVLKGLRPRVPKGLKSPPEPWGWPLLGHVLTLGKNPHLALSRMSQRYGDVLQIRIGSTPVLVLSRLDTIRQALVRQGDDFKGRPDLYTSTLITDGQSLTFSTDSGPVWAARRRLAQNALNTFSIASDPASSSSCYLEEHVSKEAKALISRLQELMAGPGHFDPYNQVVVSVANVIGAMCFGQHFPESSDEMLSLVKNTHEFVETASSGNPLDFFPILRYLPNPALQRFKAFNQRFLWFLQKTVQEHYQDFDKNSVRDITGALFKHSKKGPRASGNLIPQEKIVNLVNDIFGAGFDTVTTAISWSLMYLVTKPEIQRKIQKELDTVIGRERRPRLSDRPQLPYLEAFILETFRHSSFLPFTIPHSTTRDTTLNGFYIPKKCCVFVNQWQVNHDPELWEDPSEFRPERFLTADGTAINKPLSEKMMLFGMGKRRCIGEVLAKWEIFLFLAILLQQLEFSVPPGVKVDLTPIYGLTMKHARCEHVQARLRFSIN
Procedure: as §1

[7] = target: CPY2D6 (Homo sapiens, UniProt P10635); assay: P450 inhibition, microtiter plate; format: in vitro ADME; conditions: up to 10 μM
Chain of CPY2D6 (P10635 whole entry): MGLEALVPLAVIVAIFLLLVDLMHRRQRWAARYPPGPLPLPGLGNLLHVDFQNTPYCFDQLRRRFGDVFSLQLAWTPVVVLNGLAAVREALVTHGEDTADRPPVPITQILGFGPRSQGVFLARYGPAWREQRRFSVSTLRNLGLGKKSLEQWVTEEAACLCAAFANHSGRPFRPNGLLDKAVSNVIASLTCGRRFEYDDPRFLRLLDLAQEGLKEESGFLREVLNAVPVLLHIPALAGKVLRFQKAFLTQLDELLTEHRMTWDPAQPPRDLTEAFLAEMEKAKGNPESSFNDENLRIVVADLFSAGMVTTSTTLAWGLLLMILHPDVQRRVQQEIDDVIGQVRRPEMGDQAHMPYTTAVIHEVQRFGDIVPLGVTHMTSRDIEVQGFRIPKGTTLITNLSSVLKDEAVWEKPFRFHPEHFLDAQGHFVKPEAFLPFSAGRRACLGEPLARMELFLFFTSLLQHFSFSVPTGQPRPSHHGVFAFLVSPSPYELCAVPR
Procedure: as §1

[8] = target: CYP2C19 (Homo sapiens, UniProt P33261); assay: P450 inhibition, microtiter plate; format: in vitro ADME; conditions: up to 10 μM
Chain of CYP2C19 (P33261 whole entry): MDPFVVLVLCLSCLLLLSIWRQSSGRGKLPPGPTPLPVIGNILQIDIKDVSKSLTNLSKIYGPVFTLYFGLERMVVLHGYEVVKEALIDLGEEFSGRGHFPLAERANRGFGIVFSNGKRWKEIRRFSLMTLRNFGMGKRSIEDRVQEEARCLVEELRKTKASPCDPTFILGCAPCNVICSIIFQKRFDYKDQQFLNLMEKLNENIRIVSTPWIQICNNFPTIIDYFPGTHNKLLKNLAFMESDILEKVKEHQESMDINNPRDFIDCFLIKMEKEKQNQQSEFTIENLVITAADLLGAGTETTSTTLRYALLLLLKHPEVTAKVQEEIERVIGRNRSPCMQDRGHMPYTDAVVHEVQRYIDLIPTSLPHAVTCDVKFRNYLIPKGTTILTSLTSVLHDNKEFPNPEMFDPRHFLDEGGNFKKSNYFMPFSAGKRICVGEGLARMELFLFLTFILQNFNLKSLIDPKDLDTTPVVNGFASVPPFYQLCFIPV
Procedure: as §1

[9] = tested on: Isolated Guinea Pig Right Atrium; assay: Isolated guinea pig right atrium
Procedure: • 1. Astemizole (human ether-a-go-go related gene (HERG) Channel) Binding Assay. […] Isolated Guinea Pig Right Atrium (atrial fibrillation). […] Effects of AF292 (dose 5 mg/kg orally) on cardiac electrophysiological, cardio-haemodynamic in instrumented, awake dogs. Healthy trained and chronically instrumented female Beagle dogs of varying age and ranging in body weight from 9.4 to 12 kg, were used for recording of the cardiovascular parameters: heart rate, diastolic and systolic blood pressure, pressure rate product, LV dp/dt max, LV dp/dt max/pd, LV dp/dt min, cardiac output, stroke volume, systemic vascular resistance and the ECG parameters (PQ-, QRS-, QT-, QTcBazett—(QTcB), QTcFridericia—(QTcF) and QTcVan de Water—(QTcVdW) interval duration and QT-dispersion. During the last 18 hours prior to the experiments, the dogs had no access to food. Water was available ad libitum. At the beginning of each experiment, control values of the various parameters were recorded for at least 30 min. Thereafter, 5 mg/kg of AF292 (n=4) or the corresponding volume of the solvent (n=4) was administered orally by gavage. The various haemodynamic parameters were recorded continuously for 4 hours thereafter.

[10] = target: T2, human M3 receptor (Homo sapiens, UniProt P20309); assay: Arachidonic acid (AA) release, human M3; format: cell-based
T2 construct: expressed in transfected cells
T2 sequence (P20309 whole entry): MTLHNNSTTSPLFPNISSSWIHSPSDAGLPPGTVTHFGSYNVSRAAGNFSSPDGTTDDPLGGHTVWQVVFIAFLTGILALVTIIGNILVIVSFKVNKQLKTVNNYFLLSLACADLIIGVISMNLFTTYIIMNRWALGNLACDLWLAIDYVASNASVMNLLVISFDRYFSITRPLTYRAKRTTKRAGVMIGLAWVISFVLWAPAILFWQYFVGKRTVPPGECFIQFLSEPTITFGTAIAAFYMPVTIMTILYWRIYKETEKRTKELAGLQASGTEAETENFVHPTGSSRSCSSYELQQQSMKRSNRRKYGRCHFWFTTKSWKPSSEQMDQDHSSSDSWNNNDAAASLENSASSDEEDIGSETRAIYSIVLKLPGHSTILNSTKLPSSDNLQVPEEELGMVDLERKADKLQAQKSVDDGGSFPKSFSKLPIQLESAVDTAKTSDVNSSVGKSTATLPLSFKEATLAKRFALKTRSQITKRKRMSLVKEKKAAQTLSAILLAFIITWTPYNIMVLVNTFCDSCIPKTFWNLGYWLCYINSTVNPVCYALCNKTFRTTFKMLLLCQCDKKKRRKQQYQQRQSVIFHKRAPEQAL

[11] = tested on: rat hippocampal neurons; assay: Survival, morphology and apoptosis of rat hippocampal neurons exposed to Aβ; format: cell-based
Procedure: (§2) This study was performed in rat hippocampal primary cell cultures using the methods described by Garrido J L et al. (FASEB J 2002; 16:1982).

[12] = tested on: Aβ; assay: CSF and cortical Aβ in nbm-lesioned (hypocholinergic) rabbits; format: in vivo, rabbit; conditions: vs lesioned saline controls
From the text: Twenty-eight female New Zealand White rabbits, about 2.5 kg each (young adults) were used. Twenty-one received lesions of the cholinergic nucleus basalis magnocellularis (nbm). The lesion was accomplished with unilateral i.c.v. injections of an immunotoxin consisting of the ribosomal toxin saporin conjugated to the monoclonal antibody MB20.4, which is directed against the low-affinity neurotophin receptor, p75. The ME20.4 antibody is made against monkey p 75 and also recognizes rabbit p75. The dose of immunotoxin was 32.4 μg in 12 μl; this was delivered to the right lateral ventricle 2 mm lateral to the bregma. Seven animals received i.c.v. injections of sterile normal saline (sham lesion). Animals which received the immunotoxin were divided into 3 groups of 7. […] Another group received physostigmine hemisalicylate in normal saline by s.c. osmotic pump at a daily dose of 3 mg/kg. The third group received twice-daily sterile saline s.c. injections. The animals which received a sham lesion were implanted with s.c. osmotic pumps filled with sterile normal saline. Animals were euthanized 4 weeks after surgery. […] Cerebrospinal fluid was taken from the cisterna magna of all animals at the time of sacrifice; the brain was removed and sliced coronally into 0.5 cm slices. […]

[13] = tested on: GSK-3β; assay: GSK-3β activity in rat hippocampal neurons; format: cell-based; conditions: 10 μM with Aβ fibrils 10 μM (fibrils alone 370%)
Procedure: as §2

[14] = rat, in vivo, po
Procedure: This calculation was based on the brain weight (2 gr) vs. total plasma volume (14 ml).

[15] = Morris water maze in AF64A-injected rats; format: in vivo, rat
Procedure: AF64A or saline-injected (6 months old) Sprague-Dawley rats were tested in the Morris Water Maze (MWM) task. The paradigm used assesses spatial learning abilities in a reference memory regimen, and involves training (days 1-4), transfer test (Probe trial—day 4, 3 min following the last training trial) and reversal test (day 5).
Drugs and PBS were administered once a day for 5 days before starting the behavioral testing, and then for the duration of the 5-day experiment, 30 min before testing.
The three measures, escape latency, path length and swimming speed were analyzed by MANOVA, followed by simple main effects contrast analysis.

[16] = tested on: ApoE; assay: ApoE synthesis and secretion in rat primary type 1 astrocytes; format: cell-based; conditions: 96 hrs; 0.1 nM
Procedure: Primary cultures of type 1 astrocytes were derived from the cortex of Sprague Dawley rats. The compounds tested were dissolved in the culture media and added to cells for 24, 48, 72 and 96 hrs. Media was then removed and kept frozen until ApoE protein levels were evaluated by immunoblot analysis as described in Poirier et al Neuroscience 55: 81-90 (1993).

[17] = Stability of 10% w/w AF150(S) in paraffin oil; format: physicochemical
Procedure: In another embodiment of the invention, AF150(S) is provided in pharmaceutical acceptable paraffin oil. […] Ph) was examined at 40° C. under air or nitrogen atmosphere, in the presence or absence tocopherol. Samples were analyzed after two months storage. TLC, […] and GC were used to detect and determine the quantity of possible degradation product(s). Color changes were determined in comparison with Paraffin oil with or without tocopherol under the same conditions. AF150(S) was stable in the paraffin oil formulation.

[18] = Aging microcebes, chronic treatment; format: in vivo; conditions: chronic treatment for 18 months
From the text: Aging microcebes show similar cognitive deficits and cerebral lesions to those observed in aging humans and in AD patients. Thus this is a good animal model for AD, […] major hallmarks in AD {plaques (Aβ), paired helical filaments (hyperphophorylated and aggregated τ) and cognitive dysfunction}.

CC[C@@H]1SC2(CCNCC2)NC1=O [AF292, (S)-2-Ethyl-1-thia-4,8-diaza-spiro[4.5]decan-3-one]
PI turnover, agonist activity [1]: PI, AA: M5 mAChR - no effect as agonist | agonist activity at M2 mAChR [2]: inactive as an agonist; also recorded: M2 mAChR - no effects as agonist | binding to other receptors, channels and transporter [3]: no binding at all | P450 inhibition [4]: did not induce significant | P450 inhibition [5]: did not induce significant | P450 inhibition [6]: did not induce significant | P450 inhibition [7]: did not induce significant | P450 inhibition [8]: did not induce significant | contractile force [9]: no significant effect | contractile rate ([9]; vs vehicle group): tended to slightly reduce | AA release, agonist activity [10]: inactive as an agonist

CC[C@@H]1SC2(CCN(C)CC2)NC1=O [AF267B, (S)-2-ethyl-8-methyl-1-thia-4,8-diaza-spiro[4.5]decan-3-one]
survival and morphology of hippocampal neurons ([11]; 0.5-50 μM, compound alone): does not affect the survival and morphology | neurites / dendritic shrinkage induced by Aβ1-40 ([11]; blocked by pirenzepine 10 nM): protected the neurons | CSF sAPPα bands [12]: no significant difference | CSF Aβ (4 kDa band) ([12]; p=0.05): noticeable decrease | GSK-3β activity vs. control (100%) [13]: 150% | % of the compound found in the brain (Cmax brain/Cmax plasma) ([14]; female): 16% | % of the compound found in the brain (Cmax brain/Cmax plasma) ([14]; male): 25% | reversal test ([15]; AF64A rats, 1 mg/kg): tendency for improvement | training, escape latency ([15]; AF64A rats, 1 mg/kg): tendency for improvement | reversal test ([15]; AF64A rats, 3 mg/kg): tendency for impairment | training performance ([15]; AF64A rats, 3 mg/kg): tended to impair performance | learning (training) ([15]; AF64A rats, 0.3, 1, 3 mg/kg po): no significant effect on learning | probe trial, escape latency ([15]; AF64A rats, all doses): complete spatial bias

CC1=NCC2(CCN(C)CC2)S1 [AF150(S), 2,8-Dimethyl-1-thia-3,8-diaza-spiro[4.5]dec-2-ene]
inhibition of ApoE production [16]: to a lesser extent | Stability in the paraffin oil formulation ([17]; 40° C., two months): stable | Color change ([17]; samples containing 0.5% w/w tocopherol): color was not developed | Color change ([17]; samples without tocopherol): slight yellow color | astrogliosis and inflammation [18]: decreased astrogliosis and inflammation | cognitive and behavioral impairments [18]: improved the cognitive and behavioral impairments | hyperphosphorylated τ proteins, neurons with aggregated τ, paired helical filaments [18]: decreased hyperphosphorylated τ proteins
